This note sets out measurements from paper PMC8795738, “The Tarantula Venom Peptide Eo1a Binds to the Domain II S3-S4 Extracellular Loop of Voltage-Gated Sodium Channel NaV1.8 to Enhance Activation” (Frontiers in Pharmacology, 2022).

Where a SMILES comes first, the peptide text is derived from it. Bridges are numbered along the chain shown (N, C = ends).

The target in assay [1] is NaV1.8 (Homo sapiens, UniProt Q9Y5Y9). The assay is described as follows: Concentration-response of NaV1.8 peak current, QPatch whole-cell patch-clamp. It counts as cell-based. The conditions noted are these: CHO cells, hNaV1.8/β3, holding −90 mV, 50 ms pulse to +10 mV every 20 s, 5 min incubation, ECS with 0.1% BSA, 1 μM TTX, pH 7.4, four-parameter Hill fit, mean ± SEM, n = 7 cells, read-out: EC50 for increase in NaV1.8 peak current. The procedure: (§1) Human Embryonic Kidney (HEK) 293 cells stably expressing human NaV1.1 to NaV1.7/β1 (SB Drug Discovery, Glasgow, United Kingdom), Chinese Hamster Ovary (CHO) cells stably expressing human NaV1.8/β3 in a tetracycline-inducible system (ChanTest, Cleveland, OH, United States), and HEK293 cells stably expressing rat transient receptor potential vanilloid 1 (TRPV1) were cultured as previously described ([Yin et al., 2020]). Human KV2.1 and NaV1.7 mutants were transiently transfected into HEK293 cells stably expressing β1/β2 using Lipofectamine 2000 (Thermo Fisher Scientific, Scoresby, VIC, Australia) and used for patch-clamp experiments 48 h after transfection. Cells were grown in an incubator at 37°C with 5% CO2 and passaged every 3–4 d (at 70–80% confluency) using TrypLE Express (Thermo Fisher Scientific).
Automated whole-cell patch-clamp recordings were performed with a QPatch-16 automated electrophysiology platform (Sophion Bioscience, Ballerup, Denmark) using single-hole (QPlate 16 with a standard resistance of 2 ± 0.4 MΩ) or multi-hole (QPlate 16X with a standard resistance 0.2 ± 0.04 MΩ, NaV1.8 only) as previously described ([McMahon et al., 2020]). […]

In assay [2] the test system is WT mice. The assay is described as follows: Spontaneous pain after intraplantar injection, WT littermate mice. It counts as in vivo, mouse. The conditions noted are these: Eo1a intraplantar, mean ± SEM, n = 3–4 mice. The text has this:
(§2) Adult male C57BL/6J mice aged 4–8 weeks were sourced from the Animal Resource Centre (Canning Vale, Western Australia). Adult male NaV1.8 knockouts ([Nassar et al., 2004]) (aged 8–11 weeks) and wild-type littermates were housed and tested at University College London. Animals were housed in groups of three or four per cage under 12-h light-dark cycles and were provided with standard rodent chow and water ad libitum. Ethical approval for experiments involving animals was obtained from The University of Queensland animal ethics committee (TRI/IMB/093/17, IMB/PACE/421/18) and the United Kingdom Home Office (project licence PPL 70/7382). All experiments were conducted in accordance with the International Association for the Study of Pain Guidelines for the Use of Animals in Research and the Australian Code of Practice for the Care and Use of Animals for Scientific Purposes, 8th edition (2013).
Eo1a (1 μM or 10 μM) was diluted in saline/0.1% BSA and administered by intraplantar injection to the left hind paw of mice in a volume of 40 μl under isoflurane (3%) anaesthesia, and spontaneous pain behaviours (licks, bites, shakes, and lifts of the hind paw) were counted by a blinded investigator for up to 40 min after the injection.

Assay [3] concerns DRG neurons. The assay is described as follows: Calcium imaging of dorsal root ganglion (DRG) neurons. The format is cell-based, mouse.
Source text: as §2
For Ca^2+ imaging experiments, DRG neurons were isolated from 4 week old male C57BL/6J mice as previously described ([Robinson et al., 2018]). DRG neurons were dissociated and plated in 96-well poly-D-lysine-coated culture plates grown in Dulbecco’s modified Eagle’s medium supplemented with 10% fetal bovine serum (FBS) and penicillin/streptomycin and cultured for 24 h at 37°C with 5% CO2. Dissociated DRG neurons were loaded with Fluo-4 AM calcium indicator (5 μM) for 1 h, then washed with Hanks’ balanced salt solution (HBSS) containing 20 mM HEPES. Fluorescence was measured using a Nikon Ti-E Deconvolution inverted microscope, in conjunction with a Lumencor Spectra LED light source (excitation, 485 nm; emission, 521 nm). Images were acquired at 1 frame per s using a 20× objective. […] Only excitable cells responding to KCl were included for analysis. Cells were classified as responders if they had at least a 1.5-fold increase in fluorescence over baseline.

For assay [4], the system named is NaV1.7 with DII S3-S4 loop of NaV1.8. The assay is described as follows: Voltage-dependence of activation, NaV1.7/NaV1.8 chimera DII S3-S4. The settings on record: Eo1a 10 μM; NaV1.7 with NaV1.8 DII S3-S4; HEK293 β1/β2, transient; mean ± SEM, n = 3–6 cells. It counts as cell-based, human. The protocol:
as §1
Wild-type (WT) hNaV1.7 cDNA (NM_002,977, a gift from Dr James Cox, University College London) was subjected to in vitro site-directed mutagenesis using the QuikChange™ XL mutagenesis kit (Agilent Technologies) following the manufacturer’s instructions. NaV1.7 mutants were generated by substituting the domain II (DII) S1-S2 loop, the DII S3-S4 loop, the domain IV (DIV) S1-S2 loop and the DIV S3-S4 loop in NaV1.7 with the corresponding regions of NaV1.8. The mutations were verified by sequencing at the Brisbane node of the Australian Genome Research Facility. […]

Sequence of NaV1.8 (Q9Y5Y9 whole entry): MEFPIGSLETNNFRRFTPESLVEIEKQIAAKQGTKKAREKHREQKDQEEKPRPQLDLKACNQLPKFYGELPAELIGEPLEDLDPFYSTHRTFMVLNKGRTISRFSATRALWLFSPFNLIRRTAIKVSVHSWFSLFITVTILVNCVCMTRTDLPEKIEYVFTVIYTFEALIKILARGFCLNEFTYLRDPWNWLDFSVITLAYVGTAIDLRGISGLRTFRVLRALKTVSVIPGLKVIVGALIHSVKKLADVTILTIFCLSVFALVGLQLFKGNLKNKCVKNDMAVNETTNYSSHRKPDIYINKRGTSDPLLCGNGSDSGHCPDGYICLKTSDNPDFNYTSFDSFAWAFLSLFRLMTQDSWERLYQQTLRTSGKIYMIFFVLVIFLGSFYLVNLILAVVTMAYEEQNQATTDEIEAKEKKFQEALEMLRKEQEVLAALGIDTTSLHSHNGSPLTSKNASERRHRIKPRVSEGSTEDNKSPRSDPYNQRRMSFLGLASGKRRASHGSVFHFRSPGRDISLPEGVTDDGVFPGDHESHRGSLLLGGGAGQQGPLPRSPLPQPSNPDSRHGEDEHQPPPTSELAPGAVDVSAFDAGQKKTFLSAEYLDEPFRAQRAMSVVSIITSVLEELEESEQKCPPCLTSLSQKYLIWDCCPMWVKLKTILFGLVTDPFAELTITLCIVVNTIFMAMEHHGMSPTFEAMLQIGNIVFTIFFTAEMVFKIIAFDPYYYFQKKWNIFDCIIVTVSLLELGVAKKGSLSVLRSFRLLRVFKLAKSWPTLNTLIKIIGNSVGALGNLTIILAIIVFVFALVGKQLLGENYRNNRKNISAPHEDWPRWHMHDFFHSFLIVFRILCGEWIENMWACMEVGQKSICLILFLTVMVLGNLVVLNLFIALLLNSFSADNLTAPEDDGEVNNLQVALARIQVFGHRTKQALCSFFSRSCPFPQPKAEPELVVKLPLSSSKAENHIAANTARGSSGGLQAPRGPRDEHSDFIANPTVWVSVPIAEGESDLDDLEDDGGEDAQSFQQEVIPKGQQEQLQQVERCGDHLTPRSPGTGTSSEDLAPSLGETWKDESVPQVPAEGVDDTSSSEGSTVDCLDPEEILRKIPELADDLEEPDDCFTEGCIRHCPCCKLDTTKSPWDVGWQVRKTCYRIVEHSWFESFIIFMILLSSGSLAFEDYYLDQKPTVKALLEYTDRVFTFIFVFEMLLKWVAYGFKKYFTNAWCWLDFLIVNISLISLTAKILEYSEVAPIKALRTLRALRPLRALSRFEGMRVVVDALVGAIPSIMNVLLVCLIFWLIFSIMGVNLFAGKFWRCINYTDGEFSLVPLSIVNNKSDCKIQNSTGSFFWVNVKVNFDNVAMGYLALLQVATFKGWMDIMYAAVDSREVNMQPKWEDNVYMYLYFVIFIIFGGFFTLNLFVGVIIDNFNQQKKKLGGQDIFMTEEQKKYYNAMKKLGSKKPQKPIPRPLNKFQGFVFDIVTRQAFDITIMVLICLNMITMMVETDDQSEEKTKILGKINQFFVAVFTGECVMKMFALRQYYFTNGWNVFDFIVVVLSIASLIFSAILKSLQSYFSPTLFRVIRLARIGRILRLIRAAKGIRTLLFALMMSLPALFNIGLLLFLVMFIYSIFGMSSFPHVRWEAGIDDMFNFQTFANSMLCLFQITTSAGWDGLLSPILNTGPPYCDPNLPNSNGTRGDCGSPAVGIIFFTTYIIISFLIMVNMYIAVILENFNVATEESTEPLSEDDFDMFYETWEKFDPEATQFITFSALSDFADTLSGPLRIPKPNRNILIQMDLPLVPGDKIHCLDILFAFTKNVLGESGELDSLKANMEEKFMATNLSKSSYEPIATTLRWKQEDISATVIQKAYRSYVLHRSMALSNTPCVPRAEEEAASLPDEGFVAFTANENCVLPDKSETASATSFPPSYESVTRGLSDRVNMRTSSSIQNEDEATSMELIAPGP

Turning to `CC[C@H](C)[C@@H]1NC(=O)[C@H](CCCNC(=N)N)NC(=O)[C@@H]2CSSC[C@@H]3NC(=O)CNC(=O)CNC(=O)[C@H](CC(C)C)NC(=O)[C@H](Cc4ccccc4)NC(=O)[C@H](Cc4c[nH]c5ccccc45)NC(=O)[C@H](CCCNC(=N)N)NC(=O)[C@@H](NC(=O)[C@@H](N)CC(=O)O)CSSC[C@H](NC(=O)[C@H](CSSC[C@@H](C(=O)N[C@@H](C)C(=O)N[C@@H](Cc4c[nH]c5ccccc45)C(=O)N[C@@H](CC(=O)O)C(=O)NCC(=O)N[C@H](C(=O)N[C@@H](Cc4ccccc4)C(N)=O)[C@@H](C)O)NC(=O)[C@H](Cc4ccc(O)cc4)NC(=O)[C@H](CCCCN)NC(=O)[C@H]([C@@H](C)CC)NC(=O)[C@H](Cc4ccc(O)cc4)NC(=O)CNC(=O)[C@H](CC(=O)O)NC1=O)NC(=O)[C@H](CC(=O)O)NC(=O)[C@H](CO)NC(=O)[C@H](CC(=O)O)NC(=O)[C@H](CCCCN)NC(=O)[C@H](CO)NC3=O)C(=O)N[C@@H](CCCCN)C(=O)N[C@@H](Cc1c[nH]cn1)C(=O)N[C@@H](CC(C)C)C(=O)N[C@@H](C)C(=O)N2` [Eo1a] (H-DCRWFLGGCSKDSDCCKHLACRIDGYIKYCAWDGTF-NH2; disulfide 2-16, 9-21, 15-30 (inferred); N-terminus assumed), the EC50 in assay [1] was determined as 894 ± 146 nM. In assay [2], the “spontaneous pain (flinches)” value was 392 ± 45 Flinches/15 min. For the same compound, the “neurons activated in the presence of TTX” value in assay [3] (Eo1a 10 μM + TTX 1 μM, dissociated DRG neurons of C57BL/6J mice, Fluo-4, mean ± SEM of 2–3 wells) stood at 30 ± 2%. In addition, the “neurons with Ca2+ influx (activated)” value in assay [3] (Eo1a 10 μM, dissociated DRG neurons of C57BL/6J mice, Fluo-4, responder = at least 1.5-fold fluorescence increase, without TTX, mean ± SEM of 2–3 wells) was 44 ± 3%. The “size of activated neurons” value in assay [3] (Eo1a 10 μM, n = 473 alone, n = 317 with TTX, distribution did not change with TTX) was “smaller size”. Also, in assay [4], the ΔV1/2 activation is −20.4 ± 1.4 mV.
